Reference: US20210220333A1, “COMPOSITIONS AND METHODS FOR PREVENTING AND/OR TREATING FILARIAL DISEASE” (priority 2018, published 2021)
Where “and” joins values, the source holds several entries; their conditions need not be identical. Equal entries are not always repeated. Where two headings read alike, the source gives them in different places.

Experiments:
[1] = tested on: adult B. malayi female worms; test: Adult female B. malayi incubation with UGT inhibitor in combination with albendazole, worm motility; type: cell-based, Brugia malayi; details: 8 days
Method: (§1) Worm motility: Worms were visualized with a dissecting microscope by an observer blinded to treatment category. Motility of the adult female B. malayi worms was rated based on the following scale: 4=active movement, 3=modest reduction in movement, 2=severe reduction in movement, 1=twitching, and 0=no movement.
For the probenecid samples, adult female worms were incubated in culture media with the drug for 8 days at concentration of 100 μM alone or in combination with 10 μM of albendazole. Worms were transferred into new media with corresponding drug concentrations every other day. As a negative control, worms were incubated in culture media alone. Worm motility was scored using a previously established scale as described in Example 3 for the course of the experiment.

B. malayi microfilariae = B. malayi microfilariae incubation with UGT inhibitors (microfilaricidal activity in vitro); type: cell-based, Brugia malayi; details: 500 μM
Method: B. malayi microfilariae incubation with UGT inhibitors: The above UGT inhibitors were evaluated for microfilaricidal activity in vitro. For each drug, experiments were performed in triplicate at a concentration of 2×10^4 Mf/mL in culture media. Viability was determined by quantifying the number of motile larvae from 100 randomly selected microfilariae per well. […] As a negative control, larvae were incubated in culture media alone. The UGT inhibitor experiments were repeated two times under similar conditions.

[2] = cited from earlier work
[3] = UGT inhibitor LDH cytotoxicity assay; type: cell-based; details: human
Method: UGT Inhibitor Cytotoxicity Assay: Cytotoxicity of the UGT inhibitors was measured using a Pierce LDH Cytotoxicity Assay Kit (Thermo Fisher Scientific, Carlsbad, Calif., US). HEK cells were seeded at 5×10^4 per well in DMEM (Quality Biological, Gaithersburg, Md., US) with 10% Hyclone Cosmic Calf Serum (Thermo Fisher Scientific, Carlsbad, Calif., US), 200 μM of L-glutamine (Quality Biological, Gaithersburg, Md., US), and 50 μg/mL of gentamicin (Quality Biological, Gaithersburg, Md., US) at 37° C. in 5% CO2. The cells were then incubated with various concentrations of the UGT inhibitors overnight. Following this, 50 μL of media was transferred from each well to a new 96-well plate and then added 50 μL of reaction buffer. The mixture was incubated for 30 minutes and then added 50 μL of stop solution. Absorbance was measured at 490 nm and 680 nm. The following controls were included in the experiment: a spontaneous lactate dehydrogenase (LDH) activity control that was incubated with the vehicle only and a maximum LDH activity control that was incubated with nothing but later lysed prior to incubation with the reaction buffer. Absorbance was calculated for each well by subtracting the 680 nm absorbance value (background) from the 490 nm absorbance value. Percent cytotoxicity was calculated using the following equation (Formula 1): [formula]

[4] = tested on: adult B. malayi female worms; test: Adult B. malayi worm incubation with UGT inhibitors, worm motility score (macrofilaricidal activity in vitro); type: cell-based, Brugia malayi; details: for Lowest effective concentration (lowest concentration with significant effect on motility): adult worms in vitro
Method: For the siRNA experiments, data was analyzed using one-way analysis of variance (ANOVA) or T-test by PRISM 7.0 (GraphPad Software, La Jolla, Calif., US). Following ANOVA, individual comparisons of mean values were performed using Tukey's multiple comparisons test. For the UGT inhibitor experiments, area under curve (AUC) analysis was performed followed by one-way ANOVA to determine significance. Statistical significance between the experimental and control groups was designated as follows: * for p values<0.05, ** for p values<0.01, and *** for p values<0.001.
as §1
For probenecid, adult female worms were incubated in culture media with the drug for 7 days at concentrations of 5000 μM, 500 μM, 250 μM, and 100 μM. Worms were transferred into new media with corresponding drug concentrations every other day. As a negative control, worms were incubated in culture media alone. Worm motility was scored using the previously mentioned scale described in Example 3 for the course of the experiment.

## CCCSc1ccc2nc(NC(=O)OC)[nH]c2c1 [albendazole]
[1]; 10 μM albendazole alone
  Adult worm motility, area under the curve (AUC): 29.63
[1]; 10 μM alone
  Macrofilaricidal activity compared to media alone: Limited macrofilaricidal activity

## CCCN(CCC)S(=O)(=O)c1ccc(C(=O)O)cc1 [probenecid, p-(di-n-propylsulphamyl)-benzoic acid]
B. malayi microfilariae
  Microfilaricidal effect: no clear microfilaricidal effect
[2]; single 2 g oral dose
  Adverse events in humans: minimal adverse events
  Peak concentration in humans: 148.6 μg/mL and 520.7 μM
[3]
  cytotoxicity at 100 µM: -2.69%
  cytotoxicity at 250 µM: -0.67%
  cytotoxicity at 500 µM: -1.34%
  cytotoxicity at 5000 µM: -2.49%
[4]; 500 μM
  Macrofilaricidal activity in vitro: robust macrofilaricidal activity
[4]; 5000 μM, 7 days, media control AUC 24.18
  Adult worm motility, area under the curve (AUC): 8.1
[4]; adult worms
  Macrofilaricidal activity in vitro: exhibited macrofilaricidal activity in vitro
[4]
  Lowest effective concentration (lowest concentration with significant effect on motility): 500 µM

## O=C1C(CC[S+]([O-])c2ccccc2)C(=O)N(c2ccccc2)N1c1ccccc1 (stereo not shown) [sulfinpyrazone]
[2]; 400 mg dose, read-out: Maximum concentration (Cmax) in humans
  Cmax: 79.9 µM
[3]; HEK cells, 40 μM, overnight, LDH
  cytotoxicity at 40 µM: -4.03%
[3]; HEK cells, 100 μM, overnight, LDH, read-out: % Cytotoxicity
  cytotoxicity at 100 µM: -4.46%
[3]; HEK cells, 200 μM, overnight, LDH
  cytotoxicity at 200 µM: -5.35%
[3]; HEK cells, 2000 μM, overnight, LDH
  cytotoxicity at 2000 µM: -4.14%
[4]
  Lowest effective concentration (lowest concentration with significant effect on motility): 200 µM
